From the METLIN SMRT retention time set (Domingo-Almenara et al. 2019)

Test: gradient 5% acetonitrile 3 min, to 50% in 2 min, to 85% in 15 min, held 3 min, 100 µL/min
Settings: column: Zorbax Extend-C18 2.1 x 50 mm; eluents: water / acetonitrile, 0.1% formic acid
Summary of the method: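 Data were gathered over 3 months by HPLC coupled to a quadrupole time-of-flight mass spectrometer, operated in positive and negative ionization mode. Mixtures of ~100 pure standards ran on a Zorbax Extend-C18 column (2.1 × 50 mm, 1.8 μm) at 100 μL/min, with water and acetonitrile each containing 0.1% formic acid and dead and dwell volumes of 40 μL and 900 μL. Retention time was read from adduct peaks picked by computer and checked manually.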

RP-LC retention time | SMILES
1050 s | O=C(c1ccc2c(c1)CCCC2)N1CCN(c2ccccc2)CC1
1100 s | CCCCOC(=O)Cn1c(=O)c2c(nc3n2CCCCN3c2ccc(OCC)cc2)n(C)c1=O
1250 s | Cc1cccc(OCc2nc(-c3ccc(-c4csc(C)n4)cc3)no2)c1
874 s | CC1(C(=O)NCc2ccccc2)CN(S(C)(=O)=O)CC(=O)N1CCc1ccc(Cl)cc1 (stereo unspecified)
718 s | O=C(CN1C(=O)COc2ccc(C(=O)N3CCCC3)cc21)N1CCN(c2ccccc2)CC1
1060 s | COc1c(C(=O)NC(C)C)sc2cc(Cl)ccc12
867 s | CSc1cccc(NC(=O)NC2CCN(c3ccc(F)c(C)c3)C2=O)c1 (stereo unspecified)
580 s | COC(=O)c1sccc1S(=O)(=O)N1CCC(C(N)=O)(N2CCCCC2)CC1
1050 s | C=CCN1C(=O)COc2ccc(-c3csc(NC(=O)/C=C/c4ccc(OCC)c(OC)c4)n3)cc21
703 s | CCCNC(=O)C1CCCN(c2nc3ncn(CC(=O)Nc4cc(C)ccc4C)c(=O)c3s2)C1 (stereo unspecified)
1140 s | CC(C)c1ccc(NC(=O)CN2C(=O)C(C(=O)N3CCCC3)Sc3ccccc32)cc1 (stereo unspecified)
728 s | Cc1ccc(NC(=O)N2CCCC2c2nncn2C2CCCC2)cc1F (stereo unspecified)
704 s | O=C(Nc1ccc(Cl)cc1C(F)(F)F)N1CCC(n2cnnc2C2CC2)C1 (stereo unspecified)
777 s | CCC(CC)C(=O)N1CCCC(c2nc(CNC(=O)C3CCC3)cs2)C1 (stereo unspecified)
1050 s | CCOc1ccc(NC(=O)c2cccc3ccccc23)c([N+](=O)[O-])c1
665 s | Cc1ccc(-c2cc3c(=O)n(Cc4noc(CN5CCN(C(C)C)CC5)n4)ccn3n2)cc1

More lines, now with the values behind:

SMILES | RP-LC retention time
Cc1cc(-c2c(C)sc(C)c2S(=O)(=O)NCCc2ccc(Cl)cc2)n[nH]1 | 1130 s
Cc1ccc(NC(=O)Cc2csc3nc(-c4ccccc4)cn23)c(Br)c1 | 872 s
Cc1ccc(NC(=O)C2CCCN(c3ccc(-n4ccnc4)nn3)C2)cc1F (stereo unspecified) | 597 s
CSCC[C@H](NC(=O)C(C)Oc1cc(C)cc2oc(=O)c3c(c12)CCCC3)C(=O)O (stereo partly specified) | 860 s
CN(C)S(=O)(=O)c1ccc2c(c1)N(CC(=O)NC1CCCCCCC1)C(=O)C1CCCCN21 (stereo unspecified) | 692 s
CCCCCn1c(=O)c2ccccc2n(Cc2nc(-c3ccc(C)cc3)no2)c1=O | 1350 s
COc1cc(OC)cc(-c2noc(-c3cn(C)c4ccc(C)cc4c3=O)n2)c1 | 894 s
Cn1cc(S(=O)(=O)N2CCC(C(=O)NCc3ccccc3)CC2)cc1C(=O)N1CCCC1 | 1040 s
COc1ccc(CCn2nnnc2C2(c3ccc(C)cc3)CC2)cc1 | 1150 s
Cn1nc(C(=O)N2CCCC2)c2c1CCN(C(=O)Nc1cc(F)ccc1F)C2 | 728 s
O=C(Nc1ccccc1Br)c1c(O)c2cccc3c2n(c1=O)CC3 | 1240 s
CCOc1ccccc1OCc1nn2c(CSc3ccccc3)nnc2s1 | 1000 s
O=C(Nc1ccccc1F)N1CCCC1c1nc(-c2ccccc2)no1 (stereo unspecified) | 940 s
CCn1c(CCNC(=O)c2ccc(C)cc2C)nc2cccnc21 | 694 s
N#Cc1ccccc1NC(=O)NCC1CN(c2ccc3c(c2)OCO3)C(=O)O1 (stereo unspecified) | 690 s
Nc1nc(-c2ccc(O)cc2)cs1 | 547 s
O=C(N[C@H]1C[C@@H]2C[C@H]1N(C(=O)Cc1cccs1)C2)c1ccccc1 | 746 s
Cc1ccc(-c2noc(CN3C(=O)C(C)Oc4ccccc43)n2)cc1 (stereo unspecified) | 1120 s
O=C(COc1ccccc1F)Nc1ccc2c(c1)CN(C(=O)c1ccco1)CC2 | 770 s
CCOc1ccccc1NC(=O)Cn1cnc2nc(N3CCCC(C(=O)NC(C)C)C3)sc2c1=O (stereo unspecified) | 743 s
